Laboratory results as given in BindingDB's records for doi:10.1021/jm00384a023 (1987).

Assay: Inhibitor concentration required to block 50% of the specific [3H]PAF binding, obtained as natural product.

| Structure (SMILES) | IC50 |
| --- | --- |
| C=CCC1=CC2(OCC)C(=CC1=O)O[C@H](c1ccc(OC)c(OC)c1)[C@H]2C (some centres not stated) | 500 nM |
| CCCC1=C[C@@]2(OC)C(=CC1=O)O[C@H](c1ccc(OC)c(OC)c1)[C@H]2C | 70 nM |
